Counter-ions that a name gives are not always drawn.
Legend:
muscarinic receptors = assay: ^3H-oxotremorine-M binding assay (inhibition of binding to cerebral cortical membranes); details: 3 nM ^3H-oxotremorine-M, rat cerebral cortical membranes, 15 minutes at 25°C, read-out: Inhibition of ^3H-Oxo
Description: The affinity of the compounds for the muscarinic receptors was determined using the non-selective agonist ligand, ^3H-oxotremorine-M. Birdsdall N.J.M., Hulme E.C., and Burgen A.S.V., "The Character of Muscarinic Receptors in Different Regions of the Rat Brain", 207 Proc. Roy. Soc. 1 (London, Series B, 1980). Each compound was tested to determine the affinity of the compound for the muscarinic receptors using the following procedure.
For each in vitro binding, male Sprague-Dawley (Harlan Sprague-Dawley, Indianapolis, IN) rats weighing from about 100 to about 150 grams each were sacrificed by decapitation. The brains were quickly removed and the cerebral cortex were dissected from the brain. The cerebral cortex tissue was homogenized in 10 volumes of 0.32 M sucrose and […] at about 1000 x g. The supernatant was centrifuged at about 12,000 x g for about 10 minutes and the resulting pellet was resuspended in 20 mM tris-CI, pH 7.4. The resuspended pellet was centrifuged again for about 10 minutes at about 50,000 x g. The resulting homogenate was preincubated for about 10 minutes at about 25°C and centrifuged again for about 10 minutes at about 50,000 x g. The pellet was resuspended at 1 gram of pellet per 3 ml of buffer and frozen at about -80°C until used.
The aforementioned homogenates mixture was incubated for about 15 minutes at about 25°C and then the homogenates were filtered through glass filters (Whatman, GF/C) with vacuum. The filters were washed 3 times with about 2 ml of cold tris-CI buffer, and placed in scintillation vials containing about 10 ml of scintillation fluid (Ready Protein+, Beckman, Fullerton, CA). Radioactivity trapped on the filters was determined by liquid scintillation spectrometry. Nonspecific binding was determined using 1 µM atropine. […] DeLean, A. et al. Am. J. Physiol., 235, (1978).

rats = assay: Conditioned avoidance behavior in rats; assay type: in vivo, rat; details: 3.0 mg/kg s.c. 30 min before the session, active if % avoidance reduced to at least 50%
Text: In a conditioned avoidance test, animals learn to respond during a conditioned stimulus in order to avoid mild shock presentation. A response during the conditioned stimulus is termed an avoidance respone, a response during shock is termed an escape response; a response failure is when the animal fails to respond during either the conditioned stimlus or the shock presentation and is indicative of motor impairment. Animals rapidly learn to avoid 99% of the time. Antipsychotic drugs decrease the percentage of avoidance responses without interfering with the ability of the animal to respond since the animals do emit escape responses. The percentage of response failures is considered a measure of motor impairment.
Rats were required to press a response lever in an experimental chamber in order to avoid or escape foot-shock. Each experimental session consisted of 50 trials. During each trial, the chamber was illuminated and a tone presented for a maximum of 10 sec. A response during the tone immediately terminated the tone and the houselight, ending the trial. In the absence of a response during the tone alone, tone+foot-shock (2.0 mA) was presented for a maximum of 10 sec. A response during shock presentation immediately terminated the shock, the tone and the houselight, ending the trial.
For drug screening, a dose of 3.0 mg/kg was administered s.c. 30 min before the start of the experimental session. A drug was considered active if it reduced the % avoidance responding to at least 50% without producing greater than 50% response failures. For active drugs, a dose-response curve was subsequently determined.

| Compound | IC50 (muscarinic receptors) [nM] | Conditioned Avoidance % Avoidance Responses (rats) [%] |
| --- | --- | --- |
| CCCCOc1nsnc1C1=CCCN(C)C1.O=C(O)C(=O)O [Compound 4, 3-(3-Butoxy-1,2,5-thiadiazol-4-yl)-1,2,5,6-tetrahydro-1-methylpyridine oxalate] | 2 | 74 |
| Cl.FC(F)(F)COc1nsnc1C1=CCCNC1 [Compound 223, 3-(3-(2,2,2-Trifluoroethoxy)-1,2,5-thiadiazol-4-yl)-1,2,5,6-tetrahydropyridine hydrochloride] | 7.4 | 31 |
| CCOc1nsnc1C1=CCCNC1.Cl [Compound 215, 3-(3-Ethoxy-1,2,5-thiadiazol-4-yl)-1,2,5,6-tetrahydropyridine hydrochloride] | 10.5 | 61 |
| COc1nsnc1C1=CCCN(C)C1.O=C(O)C(=O)O [Compound 1, 1,2,5,6-Tetrahydro-3-(3-methoxy-1,2,5-thiadiazol-4-yl)-1-methylpyridine oxalate] | 22 | 97 |
| CN1CCC=C(c2nsnc2SCCSc2cccs2)C1 [Compound 228, 3-(3-(2-(2-Thienylthio)ethylthio))-1,2,5-thiadiazol-4-yl)-1,2,5,6-tetrahydro-1-methylpyridine oxalate] | 0.6 | 92 |
| CCCCCCSc1nsnc1C1=CCCNC1 [Compound 220, 3-(3-Hexylthio-1,2,5-thiadiazol-4-yl-1,2,5,6-tetrahydropyridine oxalate] | 3 | 88 |
| CCSc1nsnc1C1=CCCNC1.Cl [Compound 216, 3-(3-Ethylthio-1,2,5-thiadiazol-4-yl)-1,2,5,6-tetrahydropyridine hydrochloride] | 6.5 | 12 |
| CCOc1nsnc1C1=CCCN(C)C1.O=C(O)C(=O)O [Compound 2, 3-(3-Ethoxy-1,2,5-thiadiazol-4-yl)-1,2,5,6-tetrahydro-1-methylpyridine oxalate] | 5.7 | 70 |
| CCCCCSc1nsnc1C1=CCCNC1.O=C(O)C(=O)O [Compound 219, 3-(3-Pentylthio-1,2,5-thiadiazol-4-yl)-1,2,5,6-tetrahydropyridine oxalate] | 5.8 | 79 |
| CCCCCSc1nsnc1C1=CCCN(C)C1.O=C(O)C(=O)O [Compound 66, 3-(3-Pentylthio-1,2,5-thiadiazol-4-yl)-1,2,5,6-tetrahydro-1-methylpyridine oxalate] | 4.8 | 87 |

Now from value to compound, other results behind:

| IC50 (muscarinic receptors) [nM] | Compound | Conditioned Avoidance % Avoidance Responses (rats) [%] |
| --- | --- | --- |
| 1.9 | CCSc1nsnc1C1=CCCN(C)C1.O=C(O)C(=O)O [Compound 65, 3-(3-Ethylthio-1,2,5-thiadiazol-4-yl)-1,2,5,6-tetrahydro-1-methylpyridine oxalate] | 69 |
| 0.9 | CCCSc1nsnc1C1=CCCN(C)C1.O=C(O)C(=O)O [Compound 47, 3-(3-Propylthio-1,2,5-thiadiazol-4-yl)-1,2,5,6-tetrahydro-1-methylpyridine oxalate] | 49 |
| 1.7 | CCCCSc1nsnc1C1=CCCN(C)C1.O=C(O)C(=O)O [Compound 48, 3-(3-Butylthio-1,2,5-thiadiazol-4-yl)-1,2,5,6-tetrahydro-1-methylpyridine oxalate] | 57 |
| 0.42 | Cl.FC(F)(F)CSc1nsnc1C1=CCCNC1 [Compound 222, 3-(3-(2,2,2-Trifluoroethylthio)-1,2,5-thiadiazol-4-yl)-1,2,5,6-tetrahydropyridine hydrochloride] | 0 |
| 3.5 | CCCCSc1nsnc1C1=CCCNC1.O=C(O)C(=O)O [Compound 218, 3-(3-Butylthio-1,2,5-thiadiazol-4-yl)-1,2,5,6-tetrahydropyridine oxalate] | 39 |
| 2.3 | CSc1nsnc1C1=CCCN(C)C1.O=C(O)C(=O)O [Compound 49, 3-(3-Methylthio-1,2,5-thiadiazol-4-yl)-1,2,5,6-tetrahydro-1-methylpyridine oxalate] | 37 |
| 1.2 | CCCSc1nsnc1C1=CCCNC1.O=C(O)C(=O)O [Compound 217, 3-(3-Propylthio-1,2,5-thiadiazol-4-yl)-1,2,5,6-tetrahydropyridine oxalate] | 30 |
| 1.6 | CCCOc1nsnc1C1=CCCN(C)C1.O=C(O)C(=O)O [Compound 3, 1,2,5,6-Tetrahydro-1-methyl-3-(3-propoxy-1,2,5-thiadiazol-4-yl)pyridine oxalate] | 71 |

Reference: patent EP0734259B1, “Use of piperidine compounds in the treatment of schizophrenia” (NOVO NORDISK A/S, priority 1993, dated 1995)
